According to ChEMBL document CHEMBL4385622, “Discovery of velpatasvir (GS-5816): A potent pan-genotypic HCV NS5A inhibitor in the single-tablet regimens Vosevi® and Epclusa®” (Bioorg Med Chem Lett, 2019):

What was measured:
Conditions in all cases: in vivo, read-out: Fabs
[1] = Fraction absorbed in rat; type: ADME
[2] = Fraction absorbed in dog; type: ADME, Canis lupus familiaris
[3] = Fraction absorbed in cynomolgus monkey; type: ADME, Macaca fascicularis

| Structure (SMILES) | Fa [1] | Fa [2] | Fa [3] |
| --- | --- | --- | --- |
| COC(=O)N[C@@H](C(=O)N1C[C@@H](C)C[C@H]1c1ncc(-c2cc3c4c(c2)OCc2cc(-c5cnc([C@@H]6C[C@H](C)CN6C(=O)[C@H](NC(=O)OC)c6ccccc6)[nH]5)cc(c2-4)OC3)[nH]1)c1ccccc1 | 2% | 30% |  |
| COC[C@H]1C[C@@H](c2ncc(-c3ccc4c(c3)COc3cc5c(ccc6nc([C@@H]7CCCN7C(=O)[C@@H](NC(=O)OC)C(C)C)[nH]c65)cc3-4)[nH]2)N(C(=O)[C@H](NC(=O)OC)c2ccccc2)C1 | 12% |  | 3% |
| COC(=O)N[C@H](C(=O)N1C[C@@H](C)C[C@H]1c1nc2ccc3cc4c(cc3c2[nH]1)OCc1cc(-c2cnc([C@@H]3C[C@H](C)CN3C(=O)[C@H](NC(=O)OC)c3ccccc3)[nH]2)ccc1-4)C(C)C | 4% |  |  |
| COC[C@H]1C[C@@H](c2ncc(-c3ccc4c(c3)COc3cc5c(ccc6nc([C@@H]7C[C@@H]8C[C@H]8N7C(=O)[C@@H](NC(=O)OC)C(C)C)[nH]c65)cc3-4)[nH]2)N(C(=O)[C@H](NC(=O)OC)c2ccccc2)C1 | 13% |  |  |
| COC(=O)N[C@H](C(=O)N1[C@@H](C)CC[C@H]1c1nc2ccc3cc4c(cc3c2[nH]1)OCc1cc(-c2cnc([C@@H]3C[C@H](C)CN3C(=O)[C@H](NC(=O)OC)c3ccccc3)[nH]2)ccc1-4)C(C)C | 4% |  |  |
| COC(=O)N[C@H](C(=O)N1CCC[C@H]1c1ncc(-c2cc3c4c(c2)COc2cc(-c5cnc([C@@H]6CCCN6C(=O)[C@@H](NC(=O)OC)C(C)C)[nH]5)cc(c2-4)OC3)[nH]1)C(C)C | 18% | 100% |  |

Further lines, results first:

| Fa [1] | Fa [2] | Fa [3] | Structure (SMILES) |
| --- | --- | --- | --- |
| 10% |  |  | COC[C@H]1C[C@@H](c2ncc(-c3ccc4c(c3)COc3cc5c(ccc6nc([C@@H]7C[C@H](COC)CN7C(=O)[C@@H](NC(=O)OC)C(C)C)[nH]c65)cc3-4)[nH]2)N(C(=O)[C@@H](NC(=O)OC)C(C)C)C1 |
| 27% | 100% | 53% | COC(=O)N[C@H](C(=O)N1[C@@H](C)CC[C@H]1c1ncc(-c2ccc3c(c2)COc2cc4c(ccc5nc([C@@H]6CC[C@H](C)N6C(=O)[C@@H](NC(=O)OC)C(C)C)[nH]c54)cc2-3)[nH]1)C(C)C |
| 11% |  |  | COC[C@H]1C[C@@H](c2nc3ccc4cc5c(cc4c3[nH]2)OCc2cc(-c3cnc([C@@H]4C[C@H](C)CN4C(=O)[C@@H](NC(=O)OC)C(C)C)[nH]3)ccc2-5)N(C(=O)[C@@H](NC(=O)OC)C(C)C)C1 |
| 15% | 50% |  | COC(=O)N[C@H](C(=O)N1CCC[C@H]1c1ncc(-c2ccc3c(c2)COc2cc4c(ccc5nc([C@@H]6CCCN6C(=O)[C@@H](NC(=O)OC)C(C)C)[nH]c54)cc2-3)[nH]1)C(C)C |
| 31% | 54% |  | COC(=O)N[C@H](C(=O)N1CCC[C@H]1c1ncc(-c2ccc3c(c2)COc2c-3ccc3c2ccc2nc([C@@H]4CCCN4C(=O)[C@@H](NC(=O)OC)C(C)C)[nH]c23)[nH]1)C(C)C |
